Results from patent US20250213561A1, “SELECTIVE HYPOTHALAMUS PERMEABLE HDAC6 INHIBITORS FOR TREATMENT OF LEPTIN-RESISTANT OBESITY” (The Children’s Medical Center Corporation, priority 2022, published 2025).
“Also recorded” adds a separate entry of the source.

Assays:
HDAC6-KO DIO mice = test: Chronic treatment of DIO WT versus HDAC6 KO mice; format: in vivo; details: DIO mice
HDAC6 in AgRP neurons = test: DIO mice with HDAC6 depleted in AgRP neurons (HDAC6^Agrp-Δ); format: in vivo; details: HDAC6^Agrp-Δ versus HDAC6^WT DIO mice
Description: Design, validation, and stereotaxic injection of AAV viral vector carrying the guide RNAs targeting the mouse HDAC6 genomic locus. Three designed sgRNAs were concatenated and constructed into an AAV vector carrying a cre-enabled mCherry fluorescent marker.
Following the bilateral injection of AAV-sgHDAC6 into the arcuate nucleus of Agrp-ires-cre::LSL-Cas9-GFP (Agrp-Cre^+/−::Cas9^+/−) or control LSL-Cas9-GFP (Cas9^+/−) mice, immunostaining to detect the expression of mCherry and GFP was performed. AAV-sg-HDAC6 injected Agrp-Cre^+/−::Cas9^+/− (HDAC6^Agrp-Δ) and Cas9^+/−(HDAC6^WT) DIO mice (n=7 for each group) were fasted for 24 hours, and injected with ACY775 (10 mg/kg. i.p). Hourly total dark cycle food intake (g) (n=7 for each group) of these mice after ACY775 injection was measured. Body weight of AAV-sg-HDAC6 injected HDAC6^Agrp-Δ (n=11) and HDAC6^WT (n=6) mice were measured during 3 weeks of ACY775 (10 mg/kg/day, i.p.) treatment. Daily average food intake of HDAC6^Agrp-Δ (n=11) and HDAC6^WT (n=6) mice was measured during 3 weeks of ACY775 (10 mg/kg/day, i.p.) treatment. 24-hour food intake average of HDAC6^Agrp-Δ and HDAC6^WT mice during the 3 weeks of ACY775 treatment was assessed. Serum leptin level (ng/ml) of HDAC6^Agrp-Δ and HDAC6^WT mice after 2 weeks of ACY775 treatment (n=13 for HDAC6^WT and n=18 for HDAC6^Agrp-Δ) was measured. Lean mass (g); fat mass; and fat percentage (%) of HDAC6^Agrp-Δ and HDAC6^WT DIO mice after 3 weeks of ACY775 treatment was measured by DEXA scan. The HDAC6 inhibitor responsive neurons in the dorsomedial hypothalamus (DMH) were assessed. Immunostaining and quantification of c-Fos expression was performed in the DMH of DIO mice following one-time ACY775 treatment (10 mg/kg, i.p.).

[1] = Brain/plasma ratio and brain or hypothalamus penetration; details: in vivo
DIO mice [2] = details: diet-induced obese mice; cited from earlier work
[3] = in vivo; cited from earlier work
DIO mice [4] = test: Chronic treatment of DIO mice (body weight, food intake, DEXA, glucose homeostasis); format: in vivo; details: high fat diet induced mice
Description: DIO mice were treated with ACY775 (10 mg/kg/day, i.p.) for 3 weeks. Daily body weight (g) of DIO mice treated with vehicle (n=17) or ACY775 (n=17) during 3 weeks of treatment was determined. Daily food intake (g) during 3 weeks of vehicle or ACY775 treatment was assessed. 24 hours' food intake per mouse during the first week of vehicle or ACY775 treatment was determined. Serum leptin (ng/ml) levels after 3 weeks of vehicle (n=24) or ACY775 (n=24) treatment was assessed. Lean mass (g), fat mass (g) and fat percentage (%) after 3 weeks of vehicle (n=17) or ACY775 (n=17) treatment measured by Dual-energy X-ray absorptiometry (DEXA) scan. DEXA scans were performed in two different cohorts. Glucose tolerance test (GTT) after 1 week of vehicle (n=33) or ACY775 (n=26) treated DIO mice was assessed. Area of curve (AOC) analysis for GTT was performed. Blood glucose (mg/dl) levels after 1 week of vehicle (n=17) or ACY775 (n=16) were assessed in treated DIO mice. Insulin tolerance test (ITT) was performed after 2 weeks of vehicle (n=31) or ACY775 (n=21) treatment of DIO mice. Serum insulin (ng/ml) levels were measured after 3 weeks of vehicle (n=22) or ACY775 (n=21) in treated DIO mice. A homeostatic model assessment of insulin resistance (HOMA-IR) was analyzed after 3 weeks of vehicle (n=14) or ACY775 (n=13) treated DIO mice.
Food intake was analyzed hourly until 3:00 am. […] DEXA scans were performed in two different cohorts.
DIO mice then were treated with ricolinostat (50 mg/kg, i.p.) for 3 weeks. Daily body weight (g), daily food intake (g), serum leptin (ng/ml) levels after 3 weeks of vehicle (n-8) or ricolinostat (n=8) treatment, lean mass (g); fat mass and fat percentage (%) after 3 weeks of vehicle (n=16) or ricolinostat (n=17) treatment measured by DEXA scan were determined.
Blood glucose (mg/dl) levels were measured after 1 week of vehicle (n=16) or ricolinostat (n=16) treated DIO mice. GTT after 1 week of vehicle (n=17) or ricolinostat (n=16) treatment of DIO mice was assessed. AOC analysis for GTT was performed. ITT after 2 weeks of vehicle (n=17) or ricolinostat (n=16) treated DIO mice was measured. Serum insulin (ng/ml) levels after 3 weeks of vehicle (n=8) or ricolinostat (n=8) treatment were measured in DIO mice. Liver sections from 3 weeks of vehicle or ricolinostat treated DIO mice were stained by H&E.
DIO mice then were treated with bavarostat (10 mg/kg, i.p.) for 3 weeks and daily body weight (g) of DIO mice treated with Veh (n=9) or bavarostat (n=9) measured during the three weeks of treatment period. Daily food intake (g) during 3 weeks of Veh or bavarostat treatment was also measured.
ACY1083 was administered to DIO mice as described in Example 3.

HDAC6 = HDAC6 (Homo sapiens (Human), UniProt Q9UBN7); details: unit printed as AM; unit of the source corrected; cited from earlier work
HDAC6, sequence (Q9UBN7 whole entry, species assumed): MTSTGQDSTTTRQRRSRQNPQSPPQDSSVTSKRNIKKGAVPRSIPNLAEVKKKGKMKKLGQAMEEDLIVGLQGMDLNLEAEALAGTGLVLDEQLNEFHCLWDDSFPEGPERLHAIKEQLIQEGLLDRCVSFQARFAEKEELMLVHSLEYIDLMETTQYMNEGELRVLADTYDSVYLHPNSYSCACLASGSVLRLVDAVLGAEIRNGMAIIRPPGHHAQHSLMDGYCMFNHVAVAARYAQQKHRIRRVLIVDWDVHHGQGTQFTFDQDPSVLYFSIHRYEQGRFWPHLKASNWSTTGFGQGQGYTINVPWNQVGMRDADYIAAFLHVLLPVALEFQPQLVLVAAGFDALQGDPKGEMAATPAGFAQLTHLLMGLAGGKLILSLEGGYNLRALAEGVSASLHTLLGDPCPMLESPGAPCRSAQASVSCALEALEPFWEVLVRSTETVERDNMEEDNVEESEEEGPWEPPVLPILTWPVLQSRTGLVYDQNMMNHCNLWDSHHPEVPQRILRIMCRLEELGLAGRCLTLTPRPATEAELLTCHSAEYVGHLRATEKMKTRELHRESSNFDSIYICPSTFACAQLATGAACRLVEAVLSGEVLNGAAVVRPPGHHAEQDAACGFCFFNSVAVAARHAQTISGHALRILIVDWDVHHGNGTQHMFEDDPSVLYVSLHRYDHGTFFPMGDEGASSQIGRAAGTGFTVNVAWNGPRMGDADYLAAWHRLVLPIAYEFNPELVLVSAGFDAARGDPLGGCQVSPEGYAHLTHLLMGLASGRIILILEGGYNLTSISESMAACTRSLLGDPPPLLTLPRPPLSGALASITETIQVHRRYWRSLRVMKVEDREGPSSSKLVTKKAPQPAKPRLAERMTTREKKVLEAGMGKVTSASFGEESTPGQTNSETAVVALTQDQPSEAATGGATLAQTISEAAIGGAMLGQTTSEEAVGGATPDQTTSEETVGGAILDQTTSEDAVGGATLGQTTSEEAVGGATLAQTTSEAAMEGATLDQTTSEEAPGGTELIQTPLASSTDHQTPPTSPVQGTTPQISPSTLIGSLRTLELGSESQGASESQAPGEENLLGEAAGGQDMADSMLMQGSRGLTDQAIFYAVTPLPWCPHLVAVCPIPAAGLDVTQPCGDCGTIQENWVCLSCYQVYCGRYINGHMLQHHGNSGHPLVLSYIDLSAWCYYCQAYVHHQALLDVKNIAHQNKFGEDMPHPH

DIO mice [5] = test: Chronic treatment of DIO mice (body weight, food intake, DEXA, glucose homeostasis); format: in vivo; details: 14 days, oral administration

Row | SMILES | blood glucose, serum insulin and leptin levels, WT versus HDAC6 KO (HDAC6-KO DIO mice) | fat mass and fat %, WT versus HDAC6 KO (HDAC6-KO DIO mice) | food intake, WT versus HDAC6 KO (HDAC6-KO DIO mice) | glucose tolerance and insulin sensitivity (GTT, ITT), WT versus HDAC6 KO (HDAC6-KO DIO mice) | lean mass, WT versus HDAC6 KO (HDAC6-KO DIO mice) | body weight, WT versus HDAC6 KO (HDAC6-KO DIO mice; 3 weeks, ACY775 10, ACY738 50, Tubastatin A 25 mg/kg/day i.p.) | anti-obesity effects on chronic treatment (HDAC6 in AgRP neurons) | penetrance into the hypothalamus [1] | anti-obesity effects reported by Cakir et al. (DIO mice [2]) | brain penetrance / BBB permeability [3] | food intake and total body fat mass (summary) (DIO mice [4]) | HDAC6 IC50 (HDAC6) [nM] | body weight (DIO mice [5])
1 | CN1CCc2c(c3ccccc3n2Cc2ccc(C(=O)NO)cc2)C1 [tubastatin A] | all reduced equally in the wt and HDAC6 KO group | significantly lower in both wt and HDAC6 KO groups | reduced similarly | improved glucose tolerance and increased insulin sensitivity in both wt and the HDAC6 KO mice | not different | reduced the body weight of the HDAC6 KO mice the same as the wt mice | did not change Tubastatin A's effects on suppressing feeding or body weight | neither of which have high penetrance into the hypothalamus | reduce food intake, fat mass, hepatic steatosis and improve systemic glucose homeostasis | extremely low | – | – | –
2 | O=C(NO)c1cnc(NC2(c3ccccc3)CCC(F)(F)CC2)nc1 [ACY1083] | – | – | – | – | – | – | – | – | – | brain-penetrating | significant reduction of food intake and total body fat mass | 3 | significant decrease in body weight; also recorded: reduced body weight
